Some test systems named below: MOLT-4 leukemia; PC-3 prostate; DU-145 prostate; SF-295 CNS; LOX IMVI melanoma; HCT-116 colon; M14 melanoma; OVCAR-8 ovarian; TK-10 renal; SK-OV-3 ovarian; OVCAR-5 ovarian; BT-549 breast; SN12C renal; HS 578T breast; NCI/ADR-RES ovarian; MDA-N; HCT-15 colon; SR leukemia.
Common to all, as to assay: growth of human tumour cells (NCI), 48 h

Each structure is given as a SMILES string.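 Following 48 hours of exposure in 96-well plates, responses at five concentrations were used to interpolate endpoints linearly. TGI: concentration producing complete growth inhibition.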

`CNc1cc(Cl)ccc1C(=O)N1CCC[C@H]1CO`: the TGI in the assay with MOLT-4 leukemia, in the assay on PC-3 prostate, in the assay with DU-145 prostate, with SF-295 CNS, in the assay on LOX IMVI melanoma and with HCT-116 colon was greater than 100 µM each time. Also, the TGI with M14 melanoma, in the assay on OVCAR-8 ovarian, with TK-10 renal, in the assay with SK-OV-3 ovarian, in the assay with OVCAR-5 ovarian and in the assay on BT-549 breast was greater than 100 µM throughout. For the same compound, the TGI with SN12C renal, with HS 578T breast, with NCI/ADR-RES ovarian, in the assay on MDA-N and in the assay on HCT-15 colon was greater than 100 µM throughout.
On to `CCOC(=O)/C=C/C1=C(Br)[C@@]2(C)CC[C@@H]3c4ccc(O)cc4CC[C@H]3[C@@H]2C1`, for which the TGI in the assay with MOLT-4 leukemia is 43.2 µM; with PC-3 prostate it was 28.5 µM; with DU-145 prostate it was 19.1 µM; in the assay on SF-295 CNS it was 29.2 µM; in the assay on LOX IMVI melanoma it was 19.6 µM; in the assay on HCT-116 colon, 26.6 µM. Also, the TGI came out at 23.9 µM in the assay on M14 melanoma; 18.5 µM in the assay with SR leukemia; 31.7 µM in the assay on TK-10 renal; 28.7 µM with SK-OV-3 ovarian; 28.5 µM with OVCAR-5 ovarian; 27.3 µM in the assay with BT-549 breast. For the same compound, the TGI is 26.5 µM in the assay on SN12C renal; 28.9 µM in the assay with HS 578T breast; 27.9 µM with NCI/ADR-RES ovarian; 26.7 µM in the assay on MDA-N; 24.4 µM in the assay on HCT-15 colon.
Regarding `C#C[C@@H](OC(=O)c1ccc([N+](=O)[O-])cc1)[C@@H]1C[C@H]2O[C@@H]([C@H](C/C=C/CC)OC(=O)c3ccc([N+](=O)[O-])cc3)C[C@H]2O1`, the TGI in the assay on MOLT-4 leukemia, in the assay with PC-3 prostate, in the assay on DU-145 prostate, in the assay with SF-295 CNS, in the assay on LOX IMVI melanoma and in the assay on HCT-116 colon was greater than 100 µM each time. Further, the TGI with M14 melanoma, in the assay on OVCAR-8 ovarian, in the assay with TK-10 renal, with SK-OV-3 ovarian, with OVCAR-5 ovarian and in the assay with BT-549 breast was greater than 100 µM in each case. Besides, the TGI in the assay with SN12C renal, with HS 578T breast, in the assay on NCI/ADR-RES ovarian, in the assay with MDA-N and in the assay on HCT-15 colon was greater than 100 µM each time.
For the compound `COC(=O)C1=C(C(=O)OC)N(c2ccncc2)C(c2ccco2)=CC1c1ccccc1[N+](=O)[O-]` (centres undefined), the TGI in the assay with MOLT-4 leukemia came to 6.17 µM; in the assay on PC-3 prostate it was 31 µM; in the assay on DU-145 prostate, 18 µM; in the assay with SF-295 CNS, 15.8 µM; in the assay with LOX IMVI melanoma it was 3.35 µM; in the assay with HCT-116 colon, 2.7 µM. Further, the TGI is 28.8 µM with OVCAR-8 ovarian; 5.26 µM in the assay with SR leukemia; 6.85 µM with TK-10 renal; 33.1 µM with SK-OV-3 ovarian; 30.6 µM with OVCAR-5 ovarian; 25.4 µM in the assay with BT-549 breast. The TGI with SN12C renal came to 9.72 µM; in the assay with HS 578T breast, 27.8 µM; with NCI/ADR-RES ovarian, 56.1 µM; with MDA-N, 7.51 µM; with HCT-15 colon, 5.58 µM.
Turning to `CN(C)c1ccc(C2=C([O-])c3cc(-[n+]4ccccc4)ccc3C2=O)cc1`, the TGI in the assay with MOLT-4 leukemia, in the assay with PC-3 prostate, in the assay with DU-145 prostate, in the assay on SF-295 CNS, in the assay with LOX IMVI melanoma and in the assay with HCT-116 colon was greater than 100 µM in each case. The TGI in the assay on OVCAR-8 ovarian, in the assay on SR leukemia, in the assay with TK-10 renal, in the assay with OVCAR-5 ovarian, in the assay with BT-549 breast and in the assay on SN12C renal was greater than 100 µM in each case. Also, the TGI in the assay on HS 578T breast, in the assay with NCI/ADR-RES ovarian, in the assay with MDA-N and in the assay with HCT-15 colon was greater than 100 µM in each case.
As to `CC(=S)NC=C(C(N)=O)C(N)=O`, the TGI in the assay with MOLT-4 leukemia, with PC-3 prostate, with DU-145 prostate, in the assay on SF-295 CNS, in the assay with LOX IMVI melanoma and in the assay on HCT-116 colon was greater than 100 µM throughout. Besides, the TGI in the assay with M14 melanoma, with OVCAR-8 ovarian, with SR leukemia, in the assay with SK-OV-3 ovarian, with OVCAR-5 ovarian and in the assay on BT-549 breast was greater than 100 µM each time. Also, the TGI with SN12C renal, in the assay on HS 578T breast, in the assay with NCI/ADR-RES ovarian, with MDA-N and in the assay with HCT-15 colon was greater than 100 µM in each case.
As to `CCOC(=O)/C=C(\C(=O)OCC)n1cc(C)c(=O)n(Cc2cn(COCCOC(C)=O)nn2)c1=O`, the TGI in the assay with MOLT-4 leukemia was 22 µM; in the assay on PC-3 prostate, 38.6 µM; in the assay with DU-145 prostate it was greater than 100 µM; in the assay on SF-295 CNS it was 46.3 µM; in the assay with LOX IMVI melanoma it was 35.8 µM; in the assay on HCT-116 colon it was 80.4 µM. Also, the TGI with OVCAR-8 ovarian is 21.3 µM; in the assay on SR leukemia, 57.7 µM; in the assay with TK-10 renal, 15.9 µM; in the assay with SK-OV-3 ovarian, greater than 100 µM; in the assay with OVCAR-5 ovarian, 29.5 µM; with BT-549 breast, 24.3 µM. Besides, the TGI stood at 63.3 µM in the assay on SN12C renal; 46.1 µM in the assay on HS 578T breast; 67.4 µM with NCI/ADR-RES ovarian; 50.8 µM in the assay with MDA-N; 55.4 µM in the assay with HCT-15 colon.
Consider `O=C1c2ccccc2C(=O)c2c1sc1nc3ccccc3n21`, for which the TGI with MOLT-4 leukemia stood at 4.89 µM; in the assay with PC-3 prostate it was 6.79 µM; with DU-145 prostate it was 3.13 µM; in the assay on SF-295 CNS, 3.04 µM; in the assay with HCT-116 colon, 3.25 µM; in the assay with M14 melanoma, 3.15 µM. Moreover, the TGI in the assay on OVCAR-8 ovarian is 3.82 µM; in the assay with SR leukemia, greater than 100 µM; in the assay on TK-10 renal, 12.7 µM; with SK-OV-3 ovarian, 19.1 µM; in the assay on OVCAR-5 ovarian, 4.28 µM; in the assay on BT-549 breast, 3.45 µM. Besides, the TGI in the assay on SN12C renal worked out at 2.85 µM; in the assay with HS 578T breast it was 0.0525 µM; in the assay with NCI/ADR-RES ovarian, 4.7 µM; in the assay on MDA-N, 3.49 µM.

The record behind these values is PubChem BioAssay (NCI).
